ChEMBL document CHEMBL1201862, “PubChem BioAssay data set” (2004)
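In this assay, cells in 96-well plates receive the compound at five concentrations for 48 hours. Endpoints are linearly interpolated between the surrounding concentrations. GI50 is the concentration that inhibits growth by half.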 Active and inactive are the calls of the source. Rule as the data show it: active = GI50 up to about 1.1 µM and inactive = higher.

Experiments:
Test in all cases: NCI anticancer screen, dose series, 48 h
CCRF-CEM = system: CCRF-CEM
Malme-3M = system: Malme-3M
T47D = system: T47D
SK-MEL-2 = system: SK-MEL-2
CAKI-1 = system: CAKI-1
A549 = system: A549
SNB-19 = system: SNB-19
SF-268 = system: SF-268
HOP-92 = system: HOP-92
IGROV-1 = system: IGROV-1
SK-MEL-5 = system: SK-MEL-5
A498 = system: A498
HCC 2998 = system: HCC 2998
OVCAR-5 = system: OVCAR-5
HCT-116 = system: HCT-116
SR = system: SR
HOP-62 = system: HOP-62
OVCAR-4 = system: OVCAR-4
OVCAR-8 = system: OVCAR-8
NCI-H460 = system: NCI-H460

`CCCOc1ccc(/C=C/C2=[N+](CCO)CCO2)cc1` was tested, and the GI50 (CCRF-CEM) was > 100 µM (inactive), the GI50 (Malme-3M) was > 100 µM (inactive) and the GI50 (T47D) was > 100 µM (inactive). For the same compound, the GI50 (SK-MEL-2) was > 100 µM (inactive), the GI50 (CAKI-1) was > 100 µM (inactive) and the GI50 (A549) was > 100 µM (inactive). The GI50 (SNB-19) was > 100 µM (inactive), the GI50 (SF-268) was > 100 µM (inactive) and the GI50 (HOP-92) was > 100 µM (inactive). For the same compound, the GI50 (IGROV-1) was > 100 µM (inactive), the GI50 (SK-MEL-5) was > 100 µM (inactive) and the GI50 (A498) was > 100 µM (inactive). The GI50 (HCC 2998) was > 100 µM (inactive), the GI50 (OVCAR-5) was > 100 µM (inactive) and the GI50 (HCT-116) was > 100 µM (inactive). For the same compound, the GI50 (SR) was > 100 µM (inactive), the GI50 (HOP-62) was > 100 µM (inactive) and the GI50 (OVCAR-4) was > 100 µM (inactive). The GI50 (OVCAR-8) was > 100 µM (inactive) and the GI50 (NCI-H460) was > 100 µM (inactive).

With `Clc1ccc(/C(=C/c2ccccc2)Cn2ccnc2)cc1` the GI50 (CCRF-CEM) was 17.5 µM (inactive), the GI50 (Malme-3M) was 8.97 µM (inactive) and the GI50 (T47D) was 12 µM (inactive). For the same compound, the GI50 (SK-MEL-2) was 14.6 µM (inactive), the GI50 (CAKI-1) was 19.3 µM (inactive) and the GI50 (A549) was 24.8 µM (inactive). For the same compound, the GI50 (SNB-19) was 12 µM (inactive), the GI50 (SF-268) was > 100 µM (inactive) and the GI50 (HOP-92) was 12.7 µM (inactive). For the same compound, the GI50 (IGROV-1) was 17.9 µM (inactive), the GI50 (SK-MEL-5) was 11.1 µM (inactive) and the GI50 (A498) was 22.6 µM (inactive). The GI50 (HCC 2998) was 42.7 µM (inactive), the GI50 (OVCAR-5) was 44.9 µM (inactive) and the GI50 (HCT-116) was 9.08 µM (inactive). For the same compound, the GI50 (SR) was 19.8 µM (inactive), the GI50 (HOP-62) was 89.1 µM (inactive) and the GI50 (OVCAR-4) was 22.6 µM (inactive). For the same compound, the GI50 (OVCAR-8) was 26.9 µM (inactive) and the GI50 (NCI-H460) was 26.9 µM (inactive).

In the case of `c1cc2c(cc1NC1=NCCO1)OCO2`, the GI50 (CCRF-CEM) is reported as 12.9 µM (inactive), the GI50 (Malme-3M) is reported as > 100 µM (inactive) and the GI50 (T47D) is reported as > 100 µM (inactive). For the same compound, the GI50 (SK-MEL-2) was > 100 µM (inactive), the GI50 (CAKI-1) was > 100 µM (inactive) and the GI50 (A549) was > 100 µM (inactive). The GI50 (SNB-19) was > 100 µM (inactive), the GI50 (SF-268) was > 100 µM (inactive) and the GI50 (HOP-92) was > 70.3 µM (inactive). For the same compound, the GI50 (IGROV-1) was > 100 µM (inactive), the GI50 (SK-MEL-5) was > 100 µM (inactive) and the GI50 (A498) was > 100 µM (inactive). The GI50 (HCC 2998) was > 100 µM (inactive), the GI50 (OVCAR-5) was > 100 µM (inactive) and the GI50 (HCT-116) was > 100 µM (inactive). For the same compound, the GI50 (SR) was 64.3 µM (inactive), the GI50 (HOP-62) was > 100 µM (inactive) and the GI50 (OVCAR-4) was > 100 µM (inactive). The GI50 (OVCAR-8) was > 100 µM (inactive) and the GI50 (NCI-H460) was > 100 µM (inactive).

In the case of `O=C(c1ccccc1)c1sc2c(=O)c(C(=O)c3ccccc3)c(C(=O)c3ccccc3)sc2c(=O)c1C(=O)c1ccccc1`, the GI50 (CCRF-CEM) is reported as 23.8 µM (inactive), the GI50 (Malme-3M) is reported as 75.7 µM (inactive) and the GI50 (T47D) is reported as 47.5 µM (inactive). The GI50 (SK-MEL-2) was 50.6 µM (inactive), the GI50 (CAKI-1) was 18.9 µM (inactive) and the GI50 (A549) was > 100 µM (inactive). For the same compound, the GI50 (SNB-19) was 55.3 µM (inactive), the GI50 (SF-268) was 46.7 µM (inactive) and the GI50 (HOP-92) was 37.2 µM (inactive). The GI50 (IGROV-1) was 15.6 µM (inactive), the GI50 (SK-MEL-5) was 32 µM (inactive) and the GI50 (A498) was > 100 µM (inactive). The GI50 (HCC 2998) was 19.5 µM (inactive), the GI50 (OVCAR-5) was > 100 µM (inactive) and the GI50 (HCT-116) was 44.1 µM (inactive). For the same compound, the GI50 (SR) was 4.88 µM (inactive), the GI50 (HOP-62) was 51.1 µM (inactive) and the GI50 (OVCAR-4) was > 100 µM (inactive). The GI50 (OVCAR-8) was 35.4 µM (inactive) and the GI50 (NCI-H460) was > 100 µM (inactive).

For `CC(Cl)(CCC(Cl)C(C)(C)Cl)C(=O)CBr` (stereo not given), the GI50 (CCRF-CEM) was 0.877 µM (active), the GI50 (Malme-3M) was 12.3 µM (inactive) and the GI50 (T47D) was 17.9 µM (inactive). The GI50 (SK-MEL-2) was 14.7 µM (inactive), the GI50 (CAKI-1) was 14 µM (inactive) and the GI50 (A549) was 19.5 µM (inactive). For the same compound, the GI50 (SNB-19) was 30.3 µM (inactive), the GI50 (SF-268) was 16.7 µM (inactive) and the GI50 (HOP-92) was 7.93 µM (inactive). The GI50 (IGROV-1) was 13.3 µM (inactive), the GI50 (SK-MEL-5) was 8.49 µM (inactive) and the GI50 (A498) was 17.2 µM (inactive). For the same compound, the GI50 (HCC 2998) was 17.1 µM (inactive), the GI50 (OVCAR-5) was 17.5 µM (inactive) and the GI50 (HCT-116) was 7.05 µM (inactive). The GI50 (SR) was 1.8 µM (inactive), the GI50 (HOP-62) was 18.2 µM (inactive) and the GI50 (OVCAR-4) was 2.73 µM (inactive). The GI50 (OVCAR-8) was 10.5 µM (inactive) and the GI50 (NCI-H460) was 15.9 µM (inactive).

In the case of `O=C(Nn1cc(F)c(=O)[nH]c1=O)C12CC3CC(CC(C3)C1)C2`, the GI50 (CCRF-CEM) is reported as 13 µM (inactive), the GI50 (Malme-3M) is reported as 6.73 µM (inactive) and the GI50 (T47D) is reported as 20.2 µM (inactive). The GI50 (SK-MEL-2) was 23.2 µM (inactive), the GI50 (CAKI-1) was 4.6 µM (inactive) and the GI50 (A549) was 6.27 µM (inactive). For the same compound, the GI50 (SNB-19) was 28.6 µM (inactive), the GI50 (SF-268) was 29.2 µM (inactive) and the GI50 (HOP-92) was 8.69 µM (inactive). The GI50 (IGROV-1) was 6.61 µM (inactive), the GI50 (SK-MEL-5) was 3.2 µM (inactive) and the GI50 (A498) was 7.24 µM (inactive). For the same compound, the GI50 (HCC 2998) was 0.646 µM (active), the GI50 (OVCAR-5) was 21.7 µM (inactive) and the GI50 (HCT-116) was 5.77 µM (inactive). The GI50 (SR) was 4.05 µM (inactive), the GI50 (HOP-62) was 12 µM (inactive) and the GI50 (OVCAR-4) was 10.2 µM (inactive). For the same compound, the GI50 (OVCAR-8) was 22.6 µM (inactive) and the GI50 (NCI-H460) was 1.91 µM (inactive).
